# Measurements: patent US8722910B2, “Diyne compositions” (Evolva AG, priority 2009, dated 2014)
# Values joined by “and” are separate entries in the source; they are usually repeats but may differ in a detail not shown here. Identical values can stand only once. Like-named read-outs stand apart in the source and are kept apart here.
# Legend:
# T. mentagrophytes = experiment: In vitro antifungal activity vs. dermatophytes (MIC/MFC); type: cell-based; conditions: T. mentagrophytes (n = 15)
# M. gypseum = experiment: as above; type: cell-based; conditions: M. gypseum (n = 1)
# T. terrestre = experiment: as above; type: cell-based; conditions: T. terrestre (n = 1)
# M. gallinae = experiment: as above; type: cell-based; conditions: M. gallinae (n = 1)
# C. albicans SC5314 = experiment: MIC versus reference Candida strains (broth micro dilution); type: cell-based
# C. lusitaniae = experiment: In vitro antifungal activity vs. yeasts (MIC/MFC); type: cell-based; conditions: Clavispora lusitaniae, C. lusitaniae (n = 1)
# C. parapsilosis = experiment: In vitro antifungal activity vs. yeasts (MIC/MFC); type: cell-based; conditions: Lodderomyces parapsilosis, C. parapsilosis (n = 2)
# Malassezia furfur = experiment: In vitro antifungal activity vs. yeasts (MIC/MFC); type: cell-based; conditions: Malassezia furfur (n = 1)
# C. albicans = experiment: Time course of the fungicidal effect; type: cell-based; conditions: after 3 hours of incubation
# Source text: Samples were removed periodically, filtered, washed and plated onto nutrient agar.
# C. albicans ATCC-24433 = experiment: MIC versus reference Candida strains (broth micro dilution); design: MICs (100% inhibition): unit not given beside the values; conditions: for MIC: Candida albicans
# C. albicans ATCC-90028 = experiment: as above; design: MICs (100% inhibition): unit not given beside the values; conditions: for MIC: Candida albicans
# C. glabrata ATCC-90030 = experiment: as above; design: MICs (100% inhibition): unit not given beside the values; conditions: for MIC: Nakaseomyces glabratus
# C. krusei ATCC-6258 = experiment: as above; design: MICs (100% inhibition): unit not given beside the values; conditions: for MIC: Pichia kudriavzevii
# [1] = system: C. parapsilosis ATCC-22019; experiment: as above; design: MICs (100% inhibition): unit not given beside the values; conditions: for MIC: Lodderomyces parapsilosis
# [2] = system: C. parapsilosis ATCC-90018; experiment: as above; design: MICs (100% inhibition): unit not given beside the values; conditions: for MIC: Lodderomyces parapsilosis
# C. tropicalis ATCC-750 = experiment: as above; design: MICs (100% inhibition): unit not given beside the values; conditions: for MIC: Candida tropicalis
# B. dermatitidis = experiment: Susceptibility of clinical dimorphic fungi (MIC); type: cell-based; conditions: B. dermatitidis (n = 30)
# H. capsulatum = experiment: microbe, parasite or virus in culture; type: cell-based
# S. cerevisiae = experiment: Doubling times of S. cerevisiae; type: cell-based
# Protocol: S. cerevisiae was cultured in the presence of 1 and 10 μg/ml of the potassium salt, 10 μg/ml oleic acid and 1 μg/ml of the potassium salt combined with 10 μg/ml oleic acid.
# When S. cerevisiae was cultured in the presence of 1 and 10 μg/ml compound IV″, the doubling times increased to 2.4 h and 4.2 h, respectively, compared to 2 h for the untreated control. The addition of 10 μg/ml oleic acid, sodium salt, to 1 μg/ml compound IV″ reversed the doubling time to 2 h as observed for the untreated control or 10 μg/ml oleic acid, sodium salt alone.
# Aspergillus fumigatus = experiment: Growth inhibition alone and combined with Amphotericin B (visual); type: cell-based
# Protocol: (§1) Potassium (Z)-14-(furan-2-yl)tetradeca-9-en-11,13-diynoate was tested against Aspergillus fumigatus and various Candida species alone to determine antifungal activity and in various combinations with Amphotericin B to determine if any synergistic or antagonistic interactions may occur.
# (§2) Amphotericin B and potassium (Z)-14-(furan-2-yl)tetradeca-9-en-11,13-diynoate were added to an in vitro culture of different fungi in various concentrations and the culture was visually inspected. If there is inhibition of growth the culture will remain optically clear, whereas growth results in a hazy culture. The results are shown in FIG. 5, where 0 means optically clear (i.e. no growth), 1 means slightly hazy, 2 means prominent decrease (at least 50%) in visible growth, 3 means slight reduction in visible growth and 4 means no reduction in visible growth.
# Candida albicans = experiment: as above; type: cell-based; conditions: 2 μg/ml and lower
# Protocol: as §1, §2
# Candida glabrata = experiment: as above; type: cell-based
# Protocol: as §1, §2
# Candida parapsilosis = experiment: as above; type: cell-based; conditions: 2 μg/ml and lower
# Protocol: as §1, §2
# [3] = 90% inhibition endpoint, read-out: MIC
structure (smiles),measurement,setting,value
O=C(O)CCCCCCC/C=C\C#CC#Cc1ccco1 [Compound III″],MIC90/MIC range 48 h,"T. mentagrophytes; MIC90, 48 h",<0.06 ng/mL
same,MIC,"T. mentagrophytes; Trichophyton mentagrophytes, 96 h, 35° C., 4 days",< 0.06 ng/mL
same,MFC,T. mentagrophytes; Trichophyton mentagrophytes,0.1 ng/mL
same,MIC90/MIC range 48 h,M. gypseum; 48 h,<0.06 ng/mL
same,MIC,"M. gypseum; Nannizzia gypsea, 96 h, 35° C., 4 days",< 0.06 ng/mL
same,MFC,M. gypseum; Nannizzia gypsea,16000 ng/mL
same,MIC,"T. terrestre; 96 h, 35° C., 4 days",< 0.06 ng/mL
same,MFC,T. terrestre,16000 ng/mL
same,MIC90/MIC range 48 h,T. terrestre; 48 h,<0.06 ng/mL
same,MIC,"M. gallinae; 96 h, 35° C., 4 days",< 0.06 ng/mL
same,MFC,M. gallinae,4000 ng/mL
same,MIC90/MIC range 48 h,M. gallinae; 48 h,<0.06 ng/mL
same,MIC,C. albicans SC5314,0.5 ng/mL
same,MFC,C. lusitaniae,< 0.06 ng/mL
same,MIC,C. lusitaniae; [3],< 0.06 ng/mL
same,MFC,C. parapsilosis,32000 ng/mL
same,MIC,C. parapsilosis; 90% inhibition endpoint,4000 ng/mL
same,MFC,Malassezia furfur,< 0.06 ng/mL
same,MIC,Malassezia furfur; [3],< 0.06 ng/mL
same,reduction in C. albicans CFUs,C. albicans,> 3 log
same,MIC,C. albicans ATCC-24433; ATCC24433,1.25 ng/mL
same,MIC,C. albicans ATCC-90028; ATCC90028,1.25 ng/mL
same,MIC,C. glabrata ATCC-90030; ATCC90030,10 ng/mL
same,MIC,C. krusei ATCC-6258; ATCC6258,10 ng/mL
same,MIC,[1]; ATCC22019,2560 ng/mL
same,MIC,[2]; ATCC90018,2560 ng/mL
same,MIC,C. tropicalis ATCC-750; ATCC750,2.5 ng/mL
"O=C([O-])CCCCCCC/C=C\C#CC#Cc1ccco1.[K+] [Compound IV″, potassium (Z)-14-(furan-2-yl)tetradeca-9-en-11,13-diynoate]",MIC90/MIC range 48 h,"B. dermatitidis; MIC90, 48 h",30 ng/mL
same,MIC90,"B. dermatitidis; Blastomyces dermatitidis, CLSI M38-A2, 50% growth reduction, MIC read at 96 h",30 ng/mL
same,MIC90/MIC range 48 h,"H. capsulatum; H. capsulatum (n = 20), MIC90, 48 h",30 ng/mL
same,MIC90,"H. capsulatum; Histoplasma capsulatum, 120 h",30 ng/mL
same,MIC,C. albicans SC5314,1.25 ng/mL
same,Doubling time,S. cerevisiae; 1 μg/ml,2.4 h
same,Doubling time,S. cerevisiae; 1 μg/ml combined with 10 μg/ml oleic acid,2 h and 2.1 h
same,Doubling time,S. cerevisiae; 10 μg/ml,4.2 h
same,interaction with Amphotericin B,Aspergillus fumigatus,Synergism was observed
same,inhibition of growth,Candida albicans,clearly inhibits growth
same,interaction with Amphotericin B,Candida glabrata,Synergism was observed
same,inhibition of growth,Candida glabrata; 2 μg/ml and lower,clearly inhibits growth
same,inhibition of growth by the combination,Candida glabrata; AmphothericinB/potassium salt 250/2.5 ng/ml or 125/10 ng/ml,clearly inhibit growth
same,inhibition of growth,Candida parapsilosis,clearly inhibits growth
same,MIC breakpoints,"C. albicans ATCC-24433; C. albicans ATCC 24433, CLSI M27-A3, growth inhibition of 100%, 35° C., 24 hrs",2.5 ng/mL
same,MICs (100% inhibition),"C. albicans ATCC-24433; C. albicans ATCC 24433, NCCLS M27A, 35° C., 24 hrs",2.5
same,MIC,"C. albicans ATCC-24433; ATCC24433, read-out: minimal inhibitory concentrations",2.5 ng/mL
same,MIC breakpoints,"C. albicans ATCC-90028; C. albicans ATCC 90028, CLSI M27-A3, growth inhibition of 100%, 35° C., 24 hrs",5 ng/mL
same,MICs (100% inhibition),"C. albicans ATCC-90028; C. albicans ATCC 90028, NCCLS M27A, 35° C., 24 hrs",5
same,MIC,"C. albicans ATCC-90028; ATCC90028, read-out: minimal inhibitory concentrations",5 ng/mL
same,MIC breakpoints,"C. glabrata ATCC-90030; C. glabrata ATCC 90030, CLSI M27-A3, growth inhibition of 100%, 35° C., 24 hrs",60 ng/mL
same,MICs (100% inhibition),"C. glabrata ATCC-90030; C. glabrata ATCC 90030, NCCLS M27A, 35° C., 24 hrs",60
same,MIC,C. glabrata ATCC-90030; ATCC90030,20 ng/mL
same,MIC,"C. glabrata ATCC-90030; ATCC90030, read-out: minimal inhibitory concentrations",60 ng/mL
same,MIC breakpoints,"C. krusei ATCC-6258; C. krusei ATCC 6258, CLSI M27-A3, growth inhibition of 100%, 35° C., 24 hrs",60 ng/mL
same,MICs (100% inhibition),"C. krusei ATCC-6258; C. krusei ATCC 6258, NCCLS M27A, 35° C., 24 hrs",60
same,MIC,C. krusei ATCC-6258; ATCC6258,20 ng/mL
same,MIC,"C. krusei ATCC-6258; ATCC6258, read-out: minimal inhibitory concentrations",60 ng/mL
same,MIC breakpoints,"[1]; C. parapsilosis ATCC 22019, CLSI M27-A3, growth inhibition of 100%, 35° C., 24 hrs",10240 ng/mL
same,MICs (100% inhibition),"[1]; C. parapsilosis ATCC 22019, NCCLS M27A, 35° C., 24 hrs",10240
same,MIC,"[1]; ATCC22019, read-out: minimal inhibitory concentrations",10200 ng/mL
same,MIC breakpoints,"[2]; C. parapsilosis ATCC 90018, CLSI M27-A3, growth inhibition of 100%, 35° C., 24 hrs",>10240 ng/mL
same,MICs (100% inhibition),"[2]; C. parapsilosis ATCC 90018, NCCLS M27A, 35° C., 24 hrs",>10240
same,MIC,"[2]; ATCC90018, read-out: minimal inhibitory concentrations",> 10200 ng/mL
same,MIC breakpoints,"C. tropicalis ATCC-750; C. tropicalis ATCC 750, CLSI M27-A3, growth inhibition of 100%, 35° C., 24 hrs",7.5 ng/mL
same,MICs (100% inhibition),"C. tropicalis ATCC-750; C. tropicalis ATCC 750, NCCLS M27A, 35° C., 24 hrs",7.5
same,MIC,C. tropicalis ATCC-750; ATCC750,5 ng/mL
same,MIC,"C. tropicalis ATCC-750; ATCC750, read-out: minimal inhibitory concentrations",7.5 ng/mL
